Data as given in PMC8536627, “Hydrolytic stability of anticancer drugs and one metabolite in the aquatic environment” (Environmental Science and Pollution Research International, 2021).
Entries after “also recorded” stand apart in the source; their conditions may differ. Read-outs that look alike come from different tables or passages of the source.

What was measured:
physchem [1] = type: physicochemical
Method: Moreover, the complete preliminary test was repeated twice. […] Each measuring point was performed in two parallel replicates.
where t, time; ct, c0, concentration of the analyte at a time (0 means the beginning of the test); k, rate constant.
Based on this, the t1/2 was determined by using the equation: 2 t1/2=ln2/k
where t1/2, half-life of the analyte; k, rate constant.
The degradation was monitored for 30 days or until 90 % of a compound was degraded. Based on the obtained results (Fig. 4) the constant rates (k) and half-lives (t1/2) have been calculated (Table 1).
After determining the hydrolysis rate constants it was possible to calculate activation energy (Ea) of this process at each pH, either from plotting ln k from T^−1 (Figure 5) when there were three k values obtained for each compound and pH (CP at pH 4, 7, and 9 as well as IF at pH 4) or from the following equation (for IF at pH 7 and 9, where only two k values were obtained) (Table 1): 4 E=Rlnk2−lnk1/1/T1¯−1/T2
where R, gas constant (8.314 J/mol × K); k1, k2, rate constants for different temperatures; T, absolute temperature (K).

physchem [2] = type: physicochemical; details: for half-life: buffer, read-out: t½, extrapolated half-life (converted)
Method: By obtaining at least two rate constants for two different temperatures, it is possible to calculate the rate constants and, in consequence, half-lives at other temperatures, according to the Arrhenius equation: 3 k=A×e^−E/R×Torlnk=−E/R×T+lnA
Therefore, these equations were applied to extrapolate the obtained results and calculate the rate constants and half-lives of unstable anticancer drugs in more environmentally relevant temperatures (4, 10, or 15 °C), which are typical to natural waters.
Additionally, these observations confirm that CP is much more vulnerable for hydrolysis than IF, which is interesting how two isomers (like CP and IF) may differently undergo hydrolysis process. […] If the conclusions were drawn only based on the results from the preliminary experiments (incubation at 50 °C for 5 days), it would be assumed that both compounds, especially CP, are very unstable. […] Moreover, using Equation 3, it was possible to extrapolate the results to determine the rate constants and half-lives at the temperatures 4, 10, and 15 °C, which are ordinary for environmental waters (Table 2).

[3] = HPLC water with 4 % DMSO, ref Negreira et al. ([2013a]), cited from earlier work
physchem [4] = details: 5 days; for Degradation level in the preliminary test: dark
Method: The incubation was performed in the dark, in order to avoid the influence of the photolysis on degradation of the analytes. The water used for the preparation of buffers was autoclaved, all glassware was clean, flushed with methanol, and dried in high temperature. Samples were closed in glass tubes with a sealed cap. The air from above the solution was removed by a nitrogen stream just before capping. In the preliminary test, solutions of single analytes were prepared in each tested pH: 4, 7, and 9, which is required by the OECD guidelines. There was also a blank sample prepared for each pH. Samples in the preliminary test were prepared in two parallel replicates. Moreover, the complete preliminary test was repeated twice. The preliminary test was performed at 50 °C for 5 days. […] In the case of the extended tests, 7 measuring points were provided during the time of the test. Each measuring point was performed in two parallel replicates. […] The test was conducted for 30 days or to 90 % elimination of a compound. Obtained results were used to determine the hydrolysis rate constant (k) using equation: 1 lnCt/C0=kt
The HPLC-UV/Vis technique was applied to determine the level of hydrolytic degradation of the analytes. In the preliminary test, the control and blank samples were analyzed at the beginning and the end of the test. […] In the extended test, the samples collected in the time intervals were analyzed, and peak areas were compared to those obtained at the beginning of the test. This was used to determine the kinetic of this hydrolysis process by using the Equation 1. In general, each analyte was analyzed by a simple HPLC method with UV/Vis detection. Gemini C18 (Phenomenex, USA), 5 μm, 110 Å, 150 mm × 4.6 mm chromatographic column was applied for each method and three different mobile phases were used (water or 0.1 % HCOOH) mixed with the acetonitrile. The conditions applied during the LC-MS analysis with an ion trap detector for the qualitative analysis of the samples collected after the extended tests at 20 and 70 °C are presented in the Table S2.

[5] = pH 7 and 8.1, 5 days, calculated; ref Booker et al. ([2014]); cited from earlier work
[6] = 20 °C, ref Gilard et al. ([1994]), cited from earlier work
[7] = dark conditions, 20 °C, ref Buerge et al. ([2006]); cited from earlier work
[8] = room temperature, ref Franquet-Griell et al. [2017], cited from earlier work

SMILES: O=P1(N(CCCl)CCCl)NCCCO1 (stereo not shown) [CP, cyclophosphamide]
- Degradation of initial amount in 30 days (physchem [1]; 20 °C, 30 days, pH not specified (pH 4, 7, 9 tested)): around 20%
- half-life (physchem [1]; 20 °C, all pH, read-out: Half-life (converted)): ~80 days
- k, hydrolysis rate constant (physchem [1]; 20 °C, pH 4): 0.00035 h⁻¹
- k, hydrolysis rate constant (physchem [1]; 20 °C, pH 7): 0.00038 h⁻¹
- k, hydrolysis rate constant (physchem [1]; 20 °C, pH 9): 0.00037 h⁻¹
- k, hydrolysis rate constant (physchem [1]; 50 °C, pH 4): 0.025 h⁻¹
- k, hydrolysis rate constant (physchem [1]; 50 °C, pH 7): 0.024 h⁻¹
- k, hydrolysis rate constant (physchem [1]; 50 °C, pH 9): 0.024 h⁻¹
- half-life (physchem [1]; 50 °C, range over three pH values, read-out: t½, half-life (converted)): 1.15 to 1.23 days
- k, hydrolysis rate constant (physchem [1]; 70 °C, pH 4): 0.27 h⁻¹
- k, hydrolysis rate constant (physchem [1]; 70 °C, pH 7): 0.28 h⁻¹
- k, hydrolysis rate constant (physchem [1]; 70 °C, pH 9): 0.27 h⁻¹
- half-life (physchem [1]; buffer, pH 4, 20 °C, pH 4, read-out: t½, half-life (converted)): 81.8 days
- half-life (physchem [1]; buffer, pH 4, 50 °C, pH 4, read-out: t½, half-life (converted)): 1.15 days
- half-life (physchem [1]; buffer, pH 4, 70 °C, pH 4, read-out: t½, half-life (converted)): 0.108 days
- half-life (physchem [1]; buffer, pH 4, 70 °C, range over pH 4, 7, 9, read-out: t½, half-life (converted)): 0.104 to 0.108 days
- half-life (physchem [1]; buffer, pH 7, 20 °C, pH 7, read-out: t½, half-life (converted)): 77.8 days
- half-life (physchem [1]; buffer, pH 7, 50 °C, pH 7, read-out: t½, half-life (converted)): 1.23 days
- half-life (physchem [1]; buffer, pH 7, 70 °C, pH 7, read-out: t½, half-life (converted)): 0.104 days
- half-life (physchem [1]; buffer, pH 9, 20 °C, pH 9, read-out: t½, half-life (converted)): 78.9 days
- half-life (physchem [1]; buffer, pH 9, 50 °C, pH 9, read-out: t½, half-life (converted)): 1.2 days
- half-life (physchem [1]; buffer, pH 9, 70 °C, pH 9, read-out: t½, half-life (converted)): 0.104 days
- Ea, activation energy of hydrolysis (physchem [1]; pH 4): 26.58 kcal/mol
- Ea, activation energy of hydrolysis (physchem [1]; pH 7): 26.43 kcal/mol
- Ea, activation energy of hydrolysis (physchem [1]; pH 9): 26.41 kcal/mol
- Ea, activation energy of hydrolysis (physchem [1]; range over pH 4, 7, 9): 26.41 to 26.58 kcal/mol
- k, extrapolated rate constant (physchem [2]; 4 °C, pH 4): 5.1e-05 h⁻¹
- k, extrapolated rate constant (physchem [2]; 4 °C, pH 7): 5.3e-05 h⁻¹
- k, extrapolated rate constant (physchem [2]; 4 °C, pH 9): 5.3e-05 h⁻¹
- k, extrapolated rate constant (physchem [2]; 10 °C, pH 4): 7.1e-05 h⁻¹
- k, extrapolated rate constant (physchem [2]; 10 °C, pH 7): 7.4e-05 h⁻¹
- k, extrapolated rate constant (physchem [2]; 10 °C, pH 9): 7.3e-05 h⁻¹
- k, extrapolated rate constant (physchem [2]; 15 °C, pH 4): 0.000161 h⁻¹
- k, extrapolated rate constant (physchem [2]; 15 °C, pH 7): 0.000166 h⁻¹
- k, extrapolated rate constant (physchem [2]; 15 °C, pH 9): 0.000166 h⁻¹
- half-life (physchem [2]; pH 4, 4 °C, pH 4): 568 days
- half-life (physchem [2]; pH 4, 10 °C, pH 4): 406 days
- half-life (physchem [2]; pH 4, 15 °C, pH 4): 179 days
- half-life (physchem [2]; pH 7, 4 °C, pH 7): 549 days
- half-life (physchem [2]; pH 7, 10 °C, pH 7): 393 days
- half-life (physchem [2]; pH 7, 15 °C, pH 7): 174 days
- half-life (physchem [2]; pH 9, 4 °C, pH 9): 550 days
- half-life (physchem [2]; pH 9, 10 °C, pH 9): 394 days
- half-life (physchem [2]; pH 9, 15 °C, pH 9): 174 days
- Stability in 24 h test ([3]; 4 °C): stable
- Long-term stability at 4 °C ([3]; 4 °C): stable for 1 month
- Stability in 24 h test ([3]; 15 °C): still stable
- Stability in 24 h test ([3]; 25 °C): remained stable
- Hydrolytic stability in the preliminary test (physchem [4]; pH 4, 7 and 9, 50 °C): unstable; also recorded: susceptible to hydrolysis
- Degradation level in the preliminary test (physchem [4]; pH 4, 50 °C): completely eliminated
- Degradation level in the preliminary test (physchem [4]; pH 7, 50 °C): 91.6%
- Degradation level in the preliminary test (physchem [4]; pH 9, 50 °C): completely eliminated
- Stability assessed with SPARC from molecular structure [5]: stable
- Initial concentration present after 7 days ([6]; pH 3.4–8.6, 7 days): over 95%
- Maximum degradation after 17 days ([6]; pH 3.4–8.6, 17 days): ≤ 20%
- Half-life in lake water [7]: around 80 days
- Hydrolytic stability in milli-Q water ([8]; milli-Q water, natural pH): stable
- Stability during a 48-h test in pure water ([8]; pure water, 48 h): stable
